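96-well plates; 48 h exposure; 5 concentrations. Endpoints by linear interpolation between flanking doses. Not reached: highest tested concentration assigned. GI50 = concentration required for 50% inhibition of growth.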 Calls of active or inactive are those of the source. Rule as the data show it: active = GI50 up to about 1.1 µM and inactive = higher.
How the values were obtained:
Assay in all cases: DTP human tumour cell line panel, 48 h
[1] = test system: U-251
[2] = test system: KM12
[3] = test system: SK-MEL-2
[4] = test system: OVCAR-8
[5] = test system: NCI-H226
[6] = test system: SK-MEL-5
[7] = test system: UACC-257
[8] = test system: SN12C
[9] = test system: CAKI-1
[10] = test system: HOP-62
[11] = test system: SR
[12] = test system: Malme-3M
[13] = test system: MDA-MB-435
[14] = test system: NCI-H460
[15] = test system: OVCAR-5
[16] = test system: COLO 205
[17] = test system: M14
[18] = test system: HCT-15
[19] = test system: 786-0
[20] = test system: Hs-578T

Row | SMILES | GI50 [1] | GI50 [2] | GI50 [3] | GI50 [4] | GI50 [5] | GI50 [6] | GI50 [7] | GI50 [8] | GI50 [9] | GI50 [10] | GI50 [11] | GI50 [12] | GI50 [13] | GI50 [14] | GI50 [15] | GI50 [16] | GI50 [17] | GI50 [18] [µM] | GI50 [19] | GI50 [20]
1 | Cc1nc2ccccc2[nH]/c1=N/Nc1ccccc1 | 48.3 µM (inactive) | 14.5 µM (inactive) | 30.4 µM (inactive) | 20.3 µM (inactive) | 18.3 µM (inactive) | 14 µM (inactive) | 57.9 µM (inactive) | 26.4 µM (inactive) | 27 µM (inactive) | 23.3 µM (inactive) | 19.3 µM (inactive) | 20.3 µM (inactive) | 14.8 µM (inactive) | 35.6 µM (inactive) | 26.7 µM (inactive) | 0.108 µM (active) | 20.2 µM (inactive) | 18.9 | 25.2 µM (inactive) | 31.1 µM (inactive)
2 | COc1ccc(N2C(=O)C3c4[nH]c5ccccc5c4C4CCC(c5ccccc5)CC4C3C2=O)cc1 (stereo not given) | 5.92 µM (inactive) | > 70.5 µM (inactive) | 23.4 µM (inactive) | 17.3 µM (inactive) | > 45.7 µM (inactive) | 26.1 µM (inactive) | 48.4 µM (inactive) | 28.5 µM (inactive) | 17.4 µM (inactive) | 7.28 µM (inactive) | 0.424 µM (active) | 3.38 µM (inactive) | > 50.5 µM (inactive) | 10.3 µM (inactive) | 45.1 µM (inactive) | > 40.4 µM (inactive) | 30.5 µM (inactive) | 36 | 7.76 µM (inactive) | 5.74 µM (inactive)
3 | O=S(=O)(O)c1ccc2c(/N=N/c3ccc(/N=N/c4ccccc4)cc3)c(O)c(S(=O)(=O)O)cc2c1 | > 100 µM (inactive) | > 100 µM (inactive) | > 100 µM (inactive) | > 100 µM (inactive) | > 100 µM (inactive) | > 100 µM (inactive) | > 100 µM (inactive) | > 100 µM (inactive) | > 100 µM (inactive) | > 100 µM (inactive) | > 100 µM (inactive) | > 100 µM (inactive) | > 100 µM (inactive) | > 100 µM (inactive) | > 100 µM (inactive) | > 100 µM (inactive) | > 100 µM (inactive) | > 100 | > 100 µM (inactive) | > 100 µM (inactive)
4 | CCCCCCCCCCCCCCCCCCNC(=O)OCC(CNS(=O)(=O)CCC[n+]1cccc2ccccc21)COC (stereo not given) | 0.596 µM (active) | 1.84 µM (inactive) | 1.9 µM (inactive) | 2.07 µM (inactive) | 1.05 µM (active) | 2.06 µM (inactive) | 2.8 µM (inactive) | 1.56 µM (inactive) | 7.82 µM (inactive) | 3.76 µM (inactive) | 2.04 µM (inactive) | 3.74 µM (inactive) | 2.1 µM (inactive) | 1.34 µM (inactive) | 2.13 µM (inactive) | 0.435 µM (active) | 3.7 µM (inactive) | 23.7 | 3.45 µM (inactive) | 2 µM (inactive)
5 | Fc1cc(-c2cc(-c3ccccc3)n[nH]2)c(Cl)cc1Cl | 51.5 µM (inactive) | > 100 µM (inactive) | > 100 µM (inactive) | > 100 µM (inactive) | 50.7 µM (inactive) | > 100 µM (inactive) | > 100 µM (inactive) | > 100 µM (inactive) | > 100 µM (inactive) | 64.4 µM (inactive) | > 100 µM (inactive) | > 100 µM (inactive) | > 100 µM (inactive) | > 100 µM (inactive) | > 100 µM (inactive) | > 100 µM (inactive) | > 100 µM (inactive) | > 100 | > 100 µM (inactive) | > 100 µM (inactive)
6 | CCOc1ccc(NC(=O)C(=O)C(/C(=N/N)C(=O)OC)c2nc3ccc([N+](=O)[O-])cc3nc2O)cc1 (stereo not given) | > 100 µM (inactive) | > 100 µM (inactive) | > 100 µM (inactive) | > 100 µM (inactive) | > 100 µM (inactive) | > 100 µM (inactive) | > 100 µM (inactive) | > 100 µM (inactive) | > 100 µM (inactive) | > 100 µM (inactive) | 70 µM (inactive) | > 100 µM (inactive) | > 100 µM (inactive) | > 100 µM (inactive) | > 100 µM (inactive) | > 100 µM (inactive) | > 100 µM (inactive) | > 100 | > 100 µM (inactive) | > 100 µM (inactive)
7 | CNn1c(-c2ccccc2)n[nH]c1=O | > 100 µM (inactive) | > 100 µM (inactive) | > 100 µM (inactive) | > 100 µM (inactive) | > 100 µM (inactive) | > 100 µM (inactive) | > 100 µM (inactive) | > 100 µM (inactive) | > 100 µM (inactive) | > 100 µM (inactive) | > 100 µM (inactive) | > 100 µM (inactive) | > 100 µM (inactive) | > 100 µM (inactive) | > 100 µM (inactive) | > 100 µM (inactive) | > 100 µM (inactive) | > 100 | > 100 µM (inactive) | > 100 µM (inactive)
8 | CC1=NN=C(N)N/C1=C\C(Sc1ccc(Cl)cc1)c1ccc([N+](=O)[O-])cc1 (stereo not given) | 66.7 µM (inactive) | 94 µM (inactive) | > 100 µM (inactive) | > 100 µM (inactive) | 20.8 µM (inactive) | 74.5 µM (inactive) | 91.4 µM (inactive) | 81.1 µM (inactive) | > 100 µM (inactive) | > 100 µM (inactive) | > 100 µM (inactive) | > 100 µM (inactive) | 83.9 µM (inactive) | > 100 µM (inactive) | > 100 µM (inactive) | > 100 µM (inactive) | 62.1 µM (inactive) | 94 | 38.1 µM (inactive) | > 100 µM (inactive)
9 | N#Cc1ccc(NC(=O)C(CC(=O)OCc2ccccc2)NC(=O)OCc2ccccc2)cc1 (stereo not given) | > 10 µM (inactive) | > 10 µM (inactive) | > 100 µM (inactive) | > 10 µM (inactive) | > 10 µM (inactive) | 92 µM (inactive) | > 10 µM (inactive) | > 10 µM (inactive) | > 10 µM (inactive) | > 10 µM (inactive) | > 10 µM (inactive) | 5.74 µM (inactive) | > 10 µM (inactive) | > 10 µM (inactive) | > 10 µM (inactive) | > 10 µM (inactive) | > 10 µM (inactive) | > 10 | > 10 µM (inactive) | > 10 µM (inactive)
10 | C=CCN1C(=O)/C(=C/c2ccco2)N=C1SC/C=C/C | 49.2 µM (inactive) | 39.6 µM (inactive) | 29.4 µM (inactive) | 24.1 µM (inactive) | > 100 µM (inactive) | 20.6 µM (inactive) | 48.5 µM (inactive) | 23.5 µM (inactive) | 90.8 µM (inactive) | > 100 µM (inactive) | 21.6 µM (inactive) | 44.4 µM (inactive) | 31.8 µM (inactive) | 57.9 µM (inactive) | > 100 µM (inactive) | 36 µM (inactive) | 64.1 µM (inactive) | 35.7 | 28.2 µM (inactive) | 53.8 µM (inactive)
11 | CCOc1nc2sc3c(c2c(=O)n1CCSSCCn1c(OCC)nc2sc4c(c2c1=O)CCCC4)CCCC3 | > 100 µM (inactive) | > 100 µM (inactive) | > 100 µM (inactive) | 67.8 µM (inactive) | 56.4 µM (inactive) | > 100 µM (inactive) | > 100 µM (inactive) | > 100 µM (inactive) | > 100 µM (inactive) | > 100 µM (inactive) | > 100 µM (inactive) | > 100 µM (inactive) | > 100 µM (inactive) | > 100 µM (inactive) | > 100 µM (inactive) | > 100 µM (inactive) | > 100 µM (inactive) | > 100 | > 100 µM (inactive) | > 100 µM (inactive)
12 | COc1cc(/C=C/C=C2\CC/C(=C\C=C\c3ccc(O)c(OC)c3)C2=O)ccc1O | > 100 µM (inactive) | > 100 µM (inactive) | > 100 µM (inactive) | > 100 µM (inactive) | > 100 µM (inactive) | > 87.9 µM (inactive) | > 100 µM (inactive) | > 100 µM (inactive) | > 100 µM (inactive) | > 100 µM (inactive) | 2.53 µM (inactive) | > 85.7 µM (inactive) | > 52.4 µM (inactive) | > 100 µM (inactive) | > 100 µM (inactive) | > 100 µM (inactive) | > 100 µM (inactive) | > 100 | > 100 µM (inactive) | > 100 µM (inactive)
13 | NP(=O)(Oc1c2occc2cc2ccc(=O)oc12)N(CCCl)CCCl (stereo not given) | > 100 µM (inactive) | > 100 µM (inactive) | > 100 µM (inactive) | 73.6 µM (inactive) | 74.5 µM (inactive) | 27.9 µM (inactive) | > 100 µM (inactive) | > 100 µM (inactive) | > 100 µM (inactive) | > 100 µM (inactive) | 38.5 µM (inactive) | > 100 µM (inactive) | > 100 µM (inactive) | 68.1 µM (inactive) | > 100 µM (inactive) | > 100 µM (inactive) | > 100 µM (inactive) | > 100 | > 100 µM (inactive) | > 100 µM (inactive)
14 | Nc1nc(O)c2ncn(C3C=CC(CO)C3)c2n1 (stereo not given) | > 100 µM (inactive) | > 100 µM (inactive) | > 100 µM (inactive) | > 100 µM (inactive) | > 100 µM (inactive) | > 100 µM (inactive) | > 100 µM (inactive) | > 100 µM (inactive) | > 100 µM (inactive) | > 100 µM (inactive) | > 100 µM (inactive) | > 100 µM (inactive) | > 100 µM (inactive) | > 100 µM (inactive) | > 100 µM (inactive) | > 100 µM (inactive) | > 100 µM (inactive) | > 100 | > 100 µM (inactive) | > 100 µM (inactive)

From ChEMBL document CHEMBL1201862, “PubChem BioAssay data set” (2004)
